# From patent publication US9718828B2 (MERCK SHARP & DOHME CORP., priority 2011, dated 2017)
# Structures can show the parent of a compound that is named as a salt.
# Biological target: Btk enzyme (His-Btk) (Homo sapiens (Human), UniProt Q06187)
# Assay: Btk enzyme activity, IMAP fluorescence polarization assay (Assay Method A)
# Details: not given
# Btk enzyme (His-Btk), sequence (Q06187 whole entry): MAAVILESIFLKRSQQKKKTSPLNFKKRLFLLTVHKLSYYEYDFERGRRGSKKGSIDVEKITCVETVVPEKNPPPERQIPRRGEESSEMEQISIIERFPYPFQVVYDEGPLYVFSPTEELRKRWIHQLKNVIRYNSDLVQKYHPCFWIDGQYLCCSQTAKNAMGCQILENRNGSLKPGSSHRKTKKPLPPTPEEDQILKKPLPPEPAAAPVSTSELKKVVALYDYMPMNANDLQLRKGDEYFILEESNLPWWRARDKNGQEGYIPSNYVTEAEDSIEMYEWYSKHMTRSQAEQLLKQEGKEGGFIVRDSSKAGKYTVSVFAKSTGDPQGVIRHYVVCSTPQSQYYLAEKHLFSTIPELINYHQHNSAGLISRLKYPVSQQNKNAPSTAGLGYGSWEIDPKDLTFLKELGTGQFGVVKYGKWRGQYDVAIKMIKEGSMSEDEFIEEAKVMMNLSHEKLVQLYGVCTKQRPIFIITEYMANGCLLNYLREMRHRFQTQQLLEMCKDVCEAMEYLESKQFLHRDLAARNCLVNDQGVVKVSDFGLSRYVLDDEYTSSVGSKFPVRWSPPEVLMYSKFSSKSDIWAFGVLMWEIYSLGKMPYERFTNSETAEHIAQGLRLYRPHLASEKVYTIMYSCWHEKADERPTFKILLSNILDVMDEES
row,SMILES,EC50
1,"Nc1nccn2c(C3CC4CCC3N4C(=O)C3CCCO3)nc(-c3ccc(C(=O)Nc4ccccn4)cc3)c12 (stereo not shown) [Example 146, 4-(8-amino-3-(7-(tetrahydrofuran-2-carbonyl)-7-azabicyclo[2.2.1]heptan-2-yl)imidazo[1,5-a]pyrazin-1-yl)-N-(pyridin-2-yl)benzamide]",0.01 to 0.1 µM
2,"CCC(=O)N1C2CCC1C(c1nc(-c3ccc(C(=O)Nc4ccccn4)cc3)c3c(N)nccn13)C2 (stereo not shown) [Example 147, 4-(8-amino-3-(7-propionyl-7-azabicyclo[2.2.1]heptan-2-yl)imidazo[1,5-a]pyrazin-1-yl)-N-(pyridin-2-yl)benzamide]",0.1 to 1 µM
3,"COCCC(=O)N1C2CCC1C(c1nc(-c3ccc(C(=O)Nc4ccccn4)cc3)c3c(N)nccn13)C2 (stereo not shown) [Example 148, 4-(8-amino-3-(7-(3-methoxypropanoyl)-7-azabicyclo[2.2.1]heptan-2-yl)imidazo[1,5-a]pyrazin-1-yl)-N-(pyridin-2-yl)benzamide]",0.01 to 0.1 µM
4,"Nc1nccn2c(C3CC4CCC3N4C(=O)OCc3ccccc3)nc(-c3ccc(C(=O)Nc4ccccn4)cc3)c12 (stereo not shown) [Example 149, benzyl 2-(8-amino-1-(4-(pyridin-2-ylcarbamoyl)phenyl)imidazo [1,5-a]pyrazin-3-yl)-7-azabicyclo[2.2.1]heptane-7-carboxylate]",0.01 to 0.1 µM
5,"CC(C)C(=O)N1CCC2(CC1)CC2c1nc(-c2ccc(C(=O)Nc3ccccn3)cc2)c2c(N)nccn12 (stereo not shown) [Example 150, 4-(8-amino-3-(6-isobutyryl-6-azaspiro[2.5]octan-1-yl)imidazo[1,5-a]pyrazin-1-yl)-N-(pyridin-2-yl) benzamidee]",0.1 to 1 µM
6,"COCCC(=O)N1CCC2(CC1)CC2c1nc(-c2ccc(C(=O)Nc3ccccn3)cc2)c2c(N)nccn12 (stereo not shown) [Example 151, 4-(8-amino-3-(6-(3-methoxypropanoyl)-6-azaspiro[2.5]octan-1-yl)imidazo[1,5-a]pyrazin-1-yl)-N-(pyridin-2-yl)benzamide]",0.1 to 1 µM
7,"Nc1nccn2c(C3CC34CCN(C(=O)CO)CC4)nc(-c3ccc(C(=O)Nc4ccccn4)cc3)c12 (stereo not shown) [Example 152, 4-(8-amino-3-(6-(2-hydroxyacetyl)-6-azaspiro[2.5]octan-1-yl)imidazo[1,5-a]pyrazin-1-yl)-N-(pyridin-2-yl)benzamide]",0.1 to 1 µM
8,"CCC(=O)N1CCC2(CC1)CC2c1nc(-c2ccc(C(=O)Nc3ccccn3)cc2)c2c(N)nccn12 (stereo not shown) [Example 153, 4-(8-amino-3-(6-propionyl-6-azaspiro[2.5]octan-1-yl)imidazo[1,5-a]pyrazin-1-yl)-N-(pyridin-2-yl)benzamide]",0.1 to 1 µM
9,"CC(C)C(=O)N1CCOC(c2nc(-c3ccc(C(=O)Nc4cc(C(F)(F)F)ccn4)cc3)c3c(N)nccn23)C1 (stereo not shown) [Example 173, 4-(8-amino-3-(4-isobutyrylmorpholin-2-yl)imidazo[1,5-a]pyrazin-1-yl)-N-(4-(trifluoromethyl)pyridin-2-yl)benzamide]",< 0.01 µM

# The remaining lines, values ahead:
row,EC50,SMILES
1,0.1 to 1 µM,"N#Cc1ccnc(NC(=O)c2ccc(-c3nc(N4CCC4)n4ccnc(N)c34)cc2)c1 [Example 209, 4-(8-amino-3-(azetidin-1-yl)imidazo[1,5-a]pyrazin-1-yl)-N-(4-cyanopyridin-2-yl)benzamide]"
2,0.01 to 0.1 µM,"Nc1nccn2c(N3CCC3)nc(-c3ccc(C(=O)Nc4cc(C(F)(F)F)ccn4)cc3)c12 [Example 210, 4-(8-amino-3-(azetidin-1-yl)imidazo[1,5-a]pyrazin-1-yl)-N-(4-(trifluoromethyl)pyridin-2-yl)benzamide]"
3,0.1 to 1 µM,"CCN(CC)c1nc(-c2ccc(C(=O)Nc3ccccn3)cc2)c2c(N)nccn12 [Example 213, 4-(8-amino-3-(diethylamino)imidazo[1,5-a]pyrazin-1-yl)-N-(pyridin-2-yl)benzamide]"
4,0.01 to 0.1 µM,"CCN(CC)c1nc(-c2ccc(C(=O)Nc3cc(C#N)ccn3)cc2)c2c(N)nccn12 [Example 215, 4-(8-amino-3-(diethylamino)imidazo[1,5-a]pyrazin-1-yl)-N-(4-cyanopyridin-2-yl)benzamide]"
5,0.01 to 0.1 µM,"CCN(CC)c1nc(-c2ccc(C(=O)Nc3cc(C(F)(F)F)ccn3)cc2)c2c(N)nccn12 [Example 216, 4-(8-amino-3-(diethylamino)imidazo[1,5-a]pyrazin-1-yl)-N-(4-(trifluoromethyl)pyridin-2-yl)benzamide]"
6,0.1 to 1 µM,"COC1CN(c2nc(-c3ccc(C(=O)Nc4ccccn4)cc3)c3c(N)nccn23)C1 [Example 217, 4-(8-amino-3-(3-methoxyazetidin-1-yl)imidazo[1,5-a]pyrazin-1-yl)-N-(pyridin-2-yl)benzamide]"
7,0.01 to 0.1 µM,"Nc1nccn2c(N3CCCC(C(=O)NCC4CC4)C3)nc(-c3ccc(C(=O)Nc4ccccn4)cc3)c12 (stereo not shown) [Example 225, 1-(8-amino-1-(4-(pyridin-2-ylcarbamoyl)phenyl)imidazo[1,5-a]pyrazin-3-yl)-N-(cyclopropylmethyl)-piperidine-3-carboxamide, TFA sat]"

# Same assay, conditions: read-out: EC50 Btk activity values - Assay Method A; IMAP-FP, 60 min pre-incubation, 5 μM ATP; class 100-1000 is given as ≧100 nM-<1 μM
row,SMILES,EC50
1,"CCC(=O)N1CCSC(c2nc(-c3ccc(C(=O)Nc4cc(C(F)(F)F)ccn4)cc3)c3c(N)nccn23)C1 (stereo not shown) [Example 172, 4-(8-amino-3-(4-propionylthiomorpholin-2-yl)imidazo[1,5-a]pyrazin-1-yl)-N-(4-(trifluoromethyl)pyridin-2-yl)benzamide]",< 0.01 µM
2,"CC(C)(F)C(=O)N1CCOC(c2nc(-c3ccc(C(=O)Nc4cc(C(F)(F)F)ccn4)cc3)c3c(N)nccn23)C1 (stereo not shown) [Example 174, 4-(8-amino-3-(4-(2-fluoro-2-methylpropanoyl)morpholin-2-yl)imidazo[1,5-a]pyrazin-1-yl)-N-(4-(trifluoromethyl)pyridin-2-yl)benzamide]",< 0.01 µM
3,"Nc1nccn2c(C3CN(C(=O)C4CC4)CCO3)nc(-c3ccc(C(=O)Nc4cc(C(F)(F)F)ccn4)cc3)c12 (stereo not shown) [Example 176, 4-(8-amino-3-(4-(cyclopropanecarbonyl)morpholin-2-yl)imidazo[1,5-a]pyrazin-1-yl)-N-(4-(trifluoromethyl)pyridin-2-yl)benzamide]",< 0.01 µM
4,"CCNC(=O)N1CCOC(c2nc(-c3ccc(C(=O)Nc4cc(C(F)(F)F)ccn4)cc3)c3c(N)nccn23)C1 (stereo not shown) [Example 178, 2-(8-amino-1-(4-(4-(trifluoromethyl)pyridin-2-ylcarbamoyl)phenyl)imidazo [1,5-a]pyrazin-3-yl)-N-ethylmorpholine-4-carboxamide]",< 0.01 µM

# Other lines, results leading:
row,EC50,SMILES
1,< 0.01 µM,"CCCc1ccnc(NC(=O)c2ccc(-c3nc(N4CCC4)n4ccnc(N)c34)cc2)c1 [Example 208, 4-(8-amino-3-(azetidin-1-yl)imidazo[1,5-a]pyrazin-1-yl)-N-(4-propylpyridin-2-yl)benzamide]"
2,< 0.01 µM,"Nc1nccn2c(N3CCOCC3)nc(-c3ccc(C(=O)Nc4cc(C(F)(F)F)ccn4)cc3)c12 [Example 211, 4-(8-amino-3-morpholinoimidazo[1,5-a]pyrazin-1-yl)-N-(4-(trifluoromethyl)pyridin-2-yl)benzamide]"
3,< 0.01 µM,"CCCc1ccnc(NC(=O)c2ccc(-c3nc(N4CCOCC4)n4ccnc(N)c34)cc2)c1 [Example 212, 4-(8-amino-3-morpholinoimidazo[1,5-a]pyrazin-1-yl)-N-(4-propylpyridin-2-yl)benzamide]"
4,< 0.01 µM,"CCCc1ccnc(NC(=O)c2ccc(-c3nc(N(CC)CC)n4ccnc(N)c34)cc2)c1 [Example 214, 4-(8-amino-3-(diethylamino)imidazo[1,5-a]pyrazin-1-yl)-N-(4-propylpyridin-2-yl)benzamide]"
5,< 0.01 µM,"CC1(C(=O)N[C@H]2CCCN(c3nc(-c4ccc(C(=O)Nc5cc(C(F)(F)F)ccn5)cc4)c4c(N)nccn34)C2)COC1 [Example 218, (S)-N-(1-(8-amino-1-(4-(4-(trifluoromethyl)pyridin-2-ylcarbamoyl)phenyl)imidazo [1,5-a]pyrazin-3-yl)piperidin-3-yl)-3-methyloxetane-3-carboxamide]"
6,< 0.01 µM,"COCCC(=O)N[C@@H]1CCCN(c2nc(-c3ccc(C(=O)Nc4cc(C(F)(F)F)ccn4)cc3)c3c(N)nccn23)C1 [Example 219, (R)-4-(8-amino-3-(3-(3-methoxypropanamido)piperidin-1-yl)imidazo[1,5-a]pyrazin-1-yl)-N-(4-(trifluoromethyl)pyridin-2-yl)benzamide]"
7,< 0.01 µM,"Nc1nccn2c(N3CCC[C@@H](NC(=O)C4CC4)C3)nc(-c3ccc(C(=O)Nc4cc(C(F)(F)F)ccn4)cc3)c12 [Example 220, (R)-4-(8-amino-3-(3-(cyclopropanecarboxamido)piperidin-1-yl)imidazo[1,5-a]pyrazin-1-yl)-N-(4-(trifluoromethyl)pyridin-2-yl)benzamide]"
8,< 0.01 µM,"CCNC(=O)N[C@@H]1CCCN(c2nc(-c3ccc(C(=O)Nc4cc(C(F)(F)F)ccn4)cc3)c3c(N)nccn23)C1 [Example 221, (R)-4-(8-amino-3-(3-(3-ethylureido)piperidin-1-yl)imidazo[1,5-a]pyrazin-1-yl)-N-(4-(trifluoromethyl)pyridin-2-yl)benzamide]"
9,< 0.01 µM,"Nc1nccn2c(N3CCC[C@H](NC(=O)C4CC4)C3)nc(-c3ccc(C(=O)Nc4cc(C(F)(F)F)ccn4)cc3)c12 [Example 222, (S)-4-(8-amino-3-(3-(cyclopropanecarboxamido)piperidin-1-yl)imidazo[1,5-a]pyrazin-1-yl)-N-(4-(trifluoromethyl)pyridin-2-yl)benzamide]"
10,< 0.01 µM,"Nc1nccn2c(N3CCC[C@H](NC(=O)C4CCC4)C3)nc(-c3ccc(C(=O)Nc4cc(C(F)(F)F)ccn4)cc3)c12 [Example 223, (S)-4-(8-amino-3-(3-(cyclobutanecarboxamido)piperidin-1-yl)imidazo[1,5-a]pyrazin-1-yl)-N-(4-(trifluoromethyl)pyridin-2-yl)benzamide]"
11,< 0.01 µM,"CC(C)NC(=O)C1CCCN(c2nc(-c3ccc(C(=O)Nc4cc(C(F)(F)F)ccn4)cc3)c3c(N)nccn23)C1 (stereo not shown) [Example 224, 1-(8-amino-1-(4-(4-(trifluoromethyl)pyridin-2-ylcarbamoyl)phenyl)imidazo[1,5-a]pyrazin-3-yl)-N-isopropylpiperidine-3-carboxamide]"
